Measured values: patent US20230096766A1, “AMINO ACID HAVING FUNCTIONAL GROUP CAPABLE OF INTERMOLECULAR HYDROGEN BONDING, PEPTIDE COMPOUND CONTAINING SAME AND METHOD FOR PRODUCTION THEREOF” (Chugai Seiyaku Kabushiki Kaisha, priority 2018, published 2023)
*1 amine or outer side, *2 acyl side, *3 side chain or, on linkers, in order; H or OH if unused. Where a SMILES comes first, the peptide text is derived from it. Bridges are numbered along the chain shown (N, C = ends). [ ]: non-standard residue; d: D form. The star is where a group is joined. ξ: configuration not given here. Phe(3-OMe,4-CONHMs) = COc1cc(C[C@H](N)C(=O)O)ccc1C(=O)NS(C)(=O)=O; NMeHph(3-OMe-4-CONHMe) = CNC(=O)c1ccc(CC[C@H](NC)C(=O)O)cc1OC; hPhe(3-OMe,4-CONHMe) = CNC(=O)c1ccc(CC[C@H](N)C(=O)O)cc1OC; Phe(4-COOH) = N[C@@H](Cc1ccc(C(=O)O)cc1)C(=O)O; X12 = O=C([C@H](CCCC(O)C(F)(F)F)N[*:1])[*:2]; X13 = O=C(C1CCCCC1)[C@H](CC(=O)[*:2])N[*:1]; Pro(4,4-F2)ψ(CH2) = FC1(F)CN[C@H](C*)C1; X9 = O=C([C@@H](CN[*:1])COCCO)[*:2]; Propyl(2,2-Me2,3-OH) = CC(C)(CO)C*; Hyp = O=C(O)[C@@H]1C[C@@H](O)CN1; NMeF = CN[C@@H](Cc1ccccc1)C(=O)O; NMeGABA = CN(CCCC(=O)[*:2])[*:1]; NMeI = CC[C@H](C)[C@H](NC)C(=O)O; CH2CH(OH)CF3 = OC(C*)C(F)(F)F; NMeL = CN[C@@H](CC(C)C)C(=O)O; dNMeL = CN[C@H](CC(C)C)C(=O)O; Butyl(3R-OH) = C[C@@H](O)CC*; NMeV = CN[C@H](C(=O)O)C(C)C; NMeAbu = CC[C@H](NC)C(=O)O; Pip = O=C(O)[C@@H]1CCCCN1; Piperidide = C1CCN(*)CC1; NBuGly = CCCCNCC(=O)O; NPrGly = CCCNCC(=O)O; ξV = CC(C)C(N)C(=O)O; Ethyl(2-OH) = OCC*; N(OH)Me = CN(O)*; Sar = CNCC(=O)O; tBu = CC(C)(C)*

Experiment: Membrane permeability test of cyclic peptides (Caco-2, modified/improved method of WO 2018/124162)
Details: human, Caco-2, Caco-2 (cm/sec), membrane permeability of cyclic peptides, Caco-2

Row | SMILES | Papp [nm/s]
1 | CCCCN1CC(=O)N(C)[C@@H](CC(C)C)C(=O)N[C@H](C(=O)N2CCCCC2)CC(=O)N(C)[C@@H](C(C)C)C(=O)N[C@@H](CC(C)C)C(=O)N(C)[C@@H](CC(C)C)C(=O)N(C)[C@@H](Cc2ccccc2)C(=O)N[C@@H](COCC[C@@H](C)O)C(=O)N(C)[C@@H](Cc2ccccc2)C(=O)N(C)[C@@H](C(C)C)C(=O)N[C@@H]([C@@H](C)O)C1=O [AP116] ([NMeV]L[NMeL][NMeF]S(Butyl(3R-OH))[NMeF][NMeV]T[NBuGly][NMeL]D-Piperidide; lactam N-11) | 8.9
2 | CC(C)C[C@@H]1NC(=O)[C@H](Cc2ccccc2)N(C)C(=O)[C@H](Cc2ccccc2)N(C)C(=O)[C@H](COCC(C)(C)CO)NC(=O)[C@H](CC(C)C)N(C)C(=O)CCCN(C)C(=O)C[C@@H](C(=O)N2CCCCC2)NC(=O)[C@H](CC(C)C)N(C)C(=O)[C@H](CC(C)C)N(C)C(=O)[C@H]([C@@H](C)O)NC(=O)[C@H](CC(C)C)N(C)C1=O [AP119] ([NMeGABA][NMeL]S(Propyl(2,2-Me2,3-OH))[NMeF][NMeF]L[NMeL]T[NMeL][NMeL]D-Piperidide; lactam N-11) | 3.4
3 | CC(C)C[C@@H]1NC(=O)[C@H](Cc2ccccc2)N(C)C(=O)[C@H](CC(C)C)N(C)C(=O)[C@H](COCC(C)(C)CO)NC(=O)[C@H](CC(C)C)N(C)C(=O)C[C@@H](C(=O)N2CCCCC2)NC(=O)[C@H](CC(C)C)N(C)C(=O)CN(C)C(=O)[C@H]([C@@H](C)O)NC(=O)[C@H](CC(C)C)N(C)C(=O)[C@H](Cc2ccccc2)N(C)C1=O [AP125] ([NMeL]S(Propyl(2,2-Me2,3-OH))[NMeL][NMeF]L[NMeF][NMeL]T[Sar][NMeL]D-Piperidide; lactam N-11) | 7.4
4 | CCCN1CC(=O)N(C)[C@@H](CC(C)C)C(=O)N[C@H](C(=O)N2CCCCC2)CC(=O)N(C)[C@@H](CC(C)C)C(=O)N[C@@H](Cc2ccccc2)C(=O)N(C)[C@@H](CC(C)C)C(=O)N(C)[C@@H](CC(C)C)C(=O)NC[C@@H](COCCO)C(=O)N(C)[C@@H](Cc2ccccc2)C(=O)N(C)[C@@H](CC(C)C)C(=O)N[C@@H]([C@@H](C)O)C1=O [AP132] ([NMeL]F[NMeL][NMeL][X9][NMeF][NMeL]T[NPrGly][NMeL]D-Piperidide; lactam N-11) | 13
5 | CC[C@H](C)[C@H]1C(=O)N[C@@H]([C@@H](C)O)C(=O)N(C)CC(=O)N(C)[C@@H](CC)C(=O)N[C@H](C(=O)N2CCCCC2)CC(=O)N(C)[C@@H](CC(C)C)C(=O)N[C@@H](Cc2ccc(C(=O)NS(C)(=O)=O)c(OC)c2)C(=O)N(C)[C@@H](CC(C)C)C(=O)N(C)[C@@H](Cc2ccccc2)C(=O)N[C@@H](CC(C)C)C(=O)N(C)[C@@H](CC(C)C)C(=O)N1C [AP139] ([NMeL][Phe(3-OMe,4-CONHMs)][NMeL][NMeF]L[NMeL][NMeI]T[Sar][NMeAbu]D-Piperidide; lactam N-11) | < 2.5
6 | CNC(=O)c1ccc(CC[C@H]2C(=O)N[C@@H](CC(C)C)C(=O)N(C)[C@@H](CC(C)C)C(=O)N[C@@H]([C@@H](C)O)C(=O)N(C)CC(=O)N(C)[C@@H](CC(C)C)C(=O)N[C@@H](CC(C)C)C(=O)N(C)[C@@H](Cc3ccccc3)C(=O)N(C)[C@@H](CC(C)C)C(=O)N[C@H](C(=O)N3CCCCC3)CC(=O)N[C@H](C(C)C)C(=O)N2C)cc1OC [AP224] ([dV][NMeHph(3-OMe-4-CONHMe)]L[NMeL]T[Sar][NMeL]L[NMeF][NMeL]D-Piperidide; lactam N-11) | 11
7 | CC(C)C[C@@H]1NC(=O)[C@@H]2CCCCN2C(=O)[C@H](Cc2ccccc2)NC(=O)[C@H](C(C)C)N(C)C(=O)[C@H](CC(C)C)N(C)C(=O)[C@H]([C@@H](C)O)NC(=O)[C@H](CC(C)C)N(C)C(=O)[C@@H]2C[C@@H](OCCO)CN2C(=O)[C@H](CC(C)C)N(C)C(=O)[C@@H](CC(C)C)N(C)C(=O)C[C@@H](C(=O)N2CCCCC2)NC1=O [AP236] ([dNMeL][NMeL][Hyp](Ethyl(2-OH))[NMeL]T[NMeL][NMeV]F[Pip]LD-Piperidide; lactam N-11) | 38
8 | CC[C@H](C)[C@H]1C(=O)N[C@@H]([C@@H](C)O)C(=O)N(C)CC(=O)N(C)[C@@H](CC)C(=O)N[C@H](C(=O)N2CCCCC2)CC(=O)N(C)[C@@H](CC(C)C)C(=O)N[C@@H](Cc2ccc(C(=O)N(C)O)cc2)C(=O)N(C)[C@@H](CC(C)C)C(=O)N(C)[C@@H](Cc2ccccc2)C(=O)N[C@@H](CC(C)C)C(=O)N(C)[C@@H](CC(C)C)C(=O)N1C [AP252] ([NMeL][Phe(4-COOH)](N(OH)Me)[NMeL][NMeF]L[NMeL][NMeI]T[Sar][NMeAbu]D-Piperidide; lactam N-11) | 1.3

Same assay, conditions: human, Caco-2, Caco-2 (cm/sec), membrane permeability, Caco-2

Row | SMILES | Papp [nm/s]
9 | CC[C@H](C)[C@H]1C(=O)N[C@@H](CCc2ccc(C(=O)NC)c(OC)c2)C(=O)N[C@H](C(=O)N2CCCCC2)CC(=O)N(C)[C@H](CC(C)C)C(=O)N[C@@H](COC(C)(C)C)C(=O)N(C)[C@@H](CC(C)C)C(=O)N[C@@H]([C@@H](C)O)C(=O)N(C)[C@@H](Cc2ccccc2)C(=O)N(C)[C@@H](CC(C)C)C(=O)NCC(=O)N1C [AP264] ([dNMeL]S(tBu)[NMeL]T[NMeF][NMeL]G[NMeI][hPhe(3-OMe,4-CONHMe)]D-Piperidide; lactam N-10) | 1.7

Same assay, conditions: human, Caco-2, Caco-2 (membrane permeability), Table 6, cyclic peptides containing Ser(1-CF3-EtOH) (C) or Hnl(7-F3-6-OH) (D)

Row | SMILES | Papp [nm/s]
10 | CC(C)C[C@H]1C(=O)N[C@@H](COC(C)(C)C)C(=O)N(C)[C@@H](Cc2ccccc2)C(=O)N(C)[C@@H](CC(C)C)C(=O)N[C@H](C(=O)N2CCCCC2)CC(=O)N[C@H](C(C)C)C(=O)N(C)[C@@H](Cc2ccccc2)C(=O)N[C@@H](COCC(O)C(F)(F)F)C(=O)N(C)[C@@H](CC(C)C)C(=O)NC(C(C)C)C(=O)N(C)CC(=O)N1C (stereo partly drawn) [Compound C11] ([dV][NMeF]S(CH2CH(OH)CF3)[NMeL][ξV][Sar][NMeL]S(tBu)[NMeF][NMeL]D-Piperidide; lactam N-11) | 2.3
11 | CC[C@H](C)[C@@H]1NC(=O)[C@H](CC(C)C)N(C)C(=O)[C@H](COC(C)(C)C)NC(=O)[C@H](Cc2ccccc2)N(C)C(=O)[C@H](Cc2ccccc2)N(C)C(=O)[C@H](COCC(O)C(F)(F)F)NC(=O)[C@H](CC)N(C)C(=O)CCCN(C)C(=O)C[C@@H](C(=O)N2CCCCC2)NC(=O)[C@H](CC(C)C)N(C)C(=O)[C@H](CC(C)C)N(C)C1=O (stereo partly drawn) [Compound C13] ([NMeGABA][NMeAbu]S(CH2CH(OH)CF3)[NMeF][NMeF]S(tBu)[NMeL]I[NMeL][NMeL]D-Piperidide; lactam N-11) | 2.6
12 | CC(C)C[C@H]1C(=O)N[C@@H](COC(C)(C)C)C(=O)N(C)[C@@H](Cc2ccccc2)C(=O)N(C)[C@@H](CC(C)C)C(=O)N[C@H](C(=O)C2CCCCC2)CC(=O)N[C@H](C(C)C)C(=O)N(C)[C@@H](Cc2ccccc2)C(=O)N[C@@H](COCC(O)C(F)(F)F)C(=O)N(C)[C@@H](CC(C)C)C(=O)N[C@@H](C(C)C)C(=O)N(C)CC(=O)N1C (some centres unmarked) [Compound D11] (cyclo([NMeF][NMeL][X13][dV][NMeF]S(CH2CH(OH)CF3)[NMeL]V[Sar][NMeL]S(tBu))) | 2.1
13 | CC(C)C[C@H]1C(=O)N[C@@H](C(C)C)C(=O)N(C)[C@@H](Cc2ccccc2)C(=O)N(C)[C@@H](Cc2ccccc2)C(=O)N[C@@H](COC(C)(C)C)C(=O)N(C)[C@@H](CC(C)C)C(=O)N[C@@H](CCCC(O)C(F)(F)F)C(=O)N(C)[C@@H](CC(C)C)C(=O)N(C)[C@@H](CC(C)C)C(=O)N[C@H](C(=O)N2CCCCC2)CC(=O)N(C)CCCC(=O)N1C (stereo partly drawn) [Compound D12] ([NMeGABA][NMeL]V[NMeF][NMeF]S(tBu)[NMeL][X12][NMeL][NMeL]D-Piperidide; lactam N-11) | 1.3
14 | CC[C@H](C)[C@@H]1NC(=O)[C@H](CC(C)C)N(C)C(=O)[C@H](COC(C)(C)C)NC(=O)[C@H](Cc2ccccc2)N(C)C(=O)[C@H](Cc2ccccc2)N(C)C(=O)[C@H](CCCC(O)C(F)(F)F)NC(=O)[C@H](CC)N(C)C(=O)CCCN(C)C(=O)C[C@@H](C(=O)N2CCCCC2)NC(=O)[C@H](CC(C)C)N(C)C(=O)[C@H](CC(C)C)N(C)C1=O (stereo partly drawn) [Compound D13] ([NMeGABA][NMeAbu][X12][NMeF][NMeF]S(tBu)[NMeL]I[NMeL][NMeL]D-Piperidide; lactam N-11) | 1.4

Same assay, conditions: human, Caco-2, Caco-2 (membrane permeability), Table 10, cyclic peptides containing Ser(S-4-F2-Pyrro-Me) (G) or Nva(2-R-4-F2-Pyrro) (H)

Row | SMILES | Papp [nm/s]
15 | CCCCN1CC(=O)N(C)[C@@H](CC(C)C)C(=O)N[C@@H](COC[C@@H]2CC(F)(F)CN2)C(=O)N(C)[C@@H](CC(C)C)C(=O)N(C)[C@@H](CC(C)C)C(=O)N[C@H](C(=O)N2CCCCC2)CC(=O)N[C@H](C(C)C)C(=O)N(C)[C@@H](Cc2ccccc2)C(=O)N[C@@H](CC(C)C)C(=O)N(C)[C@@H](CC)C(=O)N[C@@H]([C@@H](C)O)C1=O [Compound G01] ([dV][NMeF]L[NMeAbu]T[NBuGly][NMeL]S(Pro(4,4-F2)ψ(CH2))[NMeL][NMeL]D-Piperidide; lactam N-11) | 5.3
16 | CCCCN1CC(=O)N(C)[C@@H](CC)C(=O)N[C@@H](COC[C@@H]2CC(F)(F)CN2)C(=O)N(C)[C@@H](Cc2ccccc2)C(=O)N(C)[C@@H](CC)C(=O)N[C@H](C(=O)N2CCCCC2)CC(=O)N[C@H](CC(C)C)C(=O)N(C)[C@@H](CC(C)C)C(=O)N[C@@H](C(C)C)C(=O)N(C)[C@@H](CC(C)C)C(=O)N[C@@H]([C@@H](C)O)C1=O [Compound G02] ([dL][NMeL]V[NMeL]T[NBuGly][NMeAbu]S(Pro(4,4-F2)ψ(CH2))[NMeF][NMeAbu]D-Piperidide; lactam N-11) | 4
17 | CC[C@H](C)[C@@H]1NC(=O)[C@H](CC(C)C)N(C)C(=O)CCCN(C)C(=O)C[C@@H](C(=O)N2CCCCC2)NC(=O)[C@H](CC(C)C)N(C)C(=O)[C@H](CC(C)C)N(C)C(=O)[C@H]([C@@H](C)O)NC(=O)[C@H](CC(C)C)N(C)C(=O)[C@H](COC[C@@H]2CC(F)(F)CN2)NC(=O)[C@H](CC(C)C)N(C)C(=O)[C@H](Cc2ccccc2)N(C)C1=O [Compound G03] ([NMeGABA][NMeL]I[NMeF][NMeL]S(Pro(4,4-F2)ψ(CH2))[NMeL]T[NMeL][NMeL]D-Piperidide; lactam N-11) | 2.3
